Experimental data reported in patent US20080193566A1, “Use of high dose concentrations of gaseous nitric oxide” (priority 2007, published 2008).

How the values were obtained:
[1] = system: non-small cell lung cancer (NSCLC) cells lines; test: MTS cell proliferation assay, 25,000 ppm gNO (Example 4), NSCLC cell line panel; format: cell-based, human; settings: between 6 and 9 minutes, all five cancer cell lines
Description: The purpose of this example is to illustrate the tumorcidal activity of high-dosage gNO. We examined the cellular sensitivity to 25,000 ppm of gNO on 5 non-small cell lung cancer (NSCLC) cells lines by an MTS cell proliferation assay.
Human lung cancer cell lines A549, NCI-H23, NCI-H460, HTB-58, H2170, and H441 (commercially available from American Type Culture Collection (“ATCC”), Manassas, Va.) were maintained in culture medium recommended by ATCC. All media were supplemented with 1% penicillin/streptomycin and 10% fetal bovine serum (commercially available from Invitrogen Gibco-BRL, Burlington, Ontario, Canada). […]
After 24 hours, the A549, NCI-H23, NCI-H460, HTB-58, H2170 and H441 cells were treated with 25,000 ppm gNO or air (control) for 1 minute, 3 minutes, 6 minutes, 9 minutes, 10 minutes, 20 minutes, and 30 minutes. Immediately following treatment, the viability of the cells was determined using a colorimetric MTS (3-(4,5-dimethylthiazol-2-yl)-5-(3-carboxymethoxyphenyl)-2-(4-sulfophenyl)-2H-tetrazolium, inner salt) cell proliferation assay (commercially available as the CellTiter 96® Aqueous One Solution Cell Proliferation Assay (MTS) from Promega, Madison, Wis., USA) according to the manufacturer's protocol. […] Absorbance was measured at 490 nm for each well using a micro-plate reader (commercially available from Dynex Technologies, Chantilly, Va., USA). […]

[2] = Viability after 25,000 ppm gNO (Example 5), NHVE; format: cell-based; settings: human, normal human endothelial lung vascular cells (NHVE)
Description: (§1) The purpose of this example is to illustrate the effects on normal human cell lines compared to the effects on cancerous cell lines of high-dosage gNO.
(§2) The above study was repeated. In addition to the A549, NCI-H23, NCI-H460, HTB-58, H2170 and H441 cells, four other cell lines were added—normal human bronchial epithelial cells (NHBE), normal human endothelial lung vascular cells (NHVE), normal human fibroblast cells (NHLF), and a squamous lung cancer cell line (H2170).
(§3) FIG. 8, embodiments A, B, C, and D, illustrate the viability of thee three normal human cell lines and one cancerous cell line to which 25,000 ppm gNO is administered for up to 15 minutes. The NHBE cells (embodiment A), experienced a decrease in viability after only 6 minutes of 25,000 ppm gNO administration, resulting in a viability of less than 10%. The NHVE cells (embodiment B) experienced a decrease in viability after only 6 minutes of 25,000 ppm gNO administration, resulting in a viability of less than 10%. The NHLF cells (embodiment C) also experienced a decrease in viability after only 6 minutes of 25,000 ppm gNO administration, resulting in a viability of about 30%. The H2170 cancerous cells experienced a dramatic decrease in viability after only 6 minutes of 25,000 ppm gNO administration, resulting in a viability of less than 10%.

[3] = system: H460-epithelial metastatic; large cell lung cancer cells; test: MTS proliferation assay, H460 cells exposed to 350 ppm gNO (Example 1); format: cell-based, human; settings: 350 ppm NO, 2 hours, RPMI medium
Description: The purpose of this example is to illustrate the effect of continuous gaseous nitric oxide (gNO) 200 ppm and 350 ppm compared to air (control) on the survival of a representative line of cancer cells. […] […] The plates then were removed and cell viability assessed by an MTS proliferation assay.
(§4) When exposed to 350 ppm of gNO, however, cancer cell survival rates decrease dramatically.

[4] = Viability after 25,000 ppm gNO (Example 5), NHLF; format: cell-based; settings: human, normal human lung fibroblast cells (NHLF)
Description: as §1, §2, §3

[5] = system: A549-epithelial lung carcinoma cells; test: MTS proliferation assay, A549 cells exposed to 200 or 350 ppm gNO (Example 1); format: cell-based, human; design: MTS assay reading, Average / MTS assay reading, Corrected Average: unit not given here; settings: for MTS assay reading, Corrected Average: blank subtracted; for Survival: vs air control
Description: The purpose of this example is to illustrate the effect of continuous gaseous nitric oxide (gNO) 200 ppm and 350 ppm compared to air (control) on the survival of a representative line of cancer cells. Cancer cell lines (A549-epithelial lung carcinoma cells and H460-epithelial metastatic; large cell lung cancer cells) were prepared in F12 medium and suspended in six 96-well plates (3 treatment and 3 controls). […] The plates then were removed and cell viability assessed by an MTS proliferation assay.
as §4

[6] = system: Staphylococcus aureus; test: S. aureus on blood agar plates exposed to 25,000 ppm gNO (Example 2); format: cell-based
Description: The purpose of this example is to observe the possibility of a novel bactericidal high dose (25,000 ppm) effect of gaseous nitric oxide (gNO) on an ATCC strain of Staphylococcous aureus plated on a blood agar media and determine a time effect of this dosage.
A closed environment treatment chamber was used (see, “A direct nitric oxide gas delivery system for bacterial and mammalian cell cultures,” A. Ghaffari, D. H. Neil, A. Ardakani, J. Road, A. Ghahary, C. C. Miller. Nitric Oxide 12(3):129-140, 2005, herein incorporated by reference in its entirety). The following steps were performed: • 1. Calibrated the AeroNOx analyzer as per standard procedure. • 2. Calibrated the closed environment treatment chamber as per standard procedure. • 3. In a 50 mL tube, known Staphylococcus aureus bacteria in 10 mL Nutrient Broth was grown overnight or for about 12 hours in a shaker incubator. • 4. Measured optical density of grown Staphylococcus aureus using a spectrophotometer set at 600 nm. Used original nutrient broth as a blank. O.D. should be 1.0±10%. • 5. Turned on closed environment treatment chamber. • 6. Labeled three plates: Air, NO+1 minute, NO+3 minutes. • 7. Immersed a sterile cotton swab into the bacterial mixture in the 50 mL tube and shaked off excess liquid. • 8. Swiped one plate entirely in two directions with the swab. • 9. […] After incubation, recorded results with digital pictures. • 14. […]

[7] = system: cancer cell lines; test: Viability after 25,000 ppm gNO (Example 5, repeat), cancer cell line panel; format: cell-based, human; settings: between about 6 and about 9 minutes, all five cancer cell lines, repeat study
Description: as §1, §2

[8] = Viability after 25,000 ppm gNO (Example 5), NHBE; format: cell-based; settings: human, normal human bronchial epithelial cells (NHBE)
Description: as §1, §2, §3

[9] = 200 ppm NO, 1 hour, HBSS medium
[10] = 200 ppm NO, 2.5 hours, F12 medium
[11] = 200 ppm NO, 2.5 hours, HBSS medium
[12] = 200 ppm NO, 3.5 hours, F12 medium
[13] = 200 ppm NO, 3.5 hours, HBSS medium
[14] = 350 ppm NO, 2 hours, F12 medium

[N]=O [gNO, nitric oxide]
cells killed [1]: 75-95% | viability at 6 min, 25000 ppm [2]: < 10% | MTS assay reading, Average [3]: 0.158 | MTS assay reading, Corrected Average ([3]; blank subtracted): 0.037 | viability at 6 min, 25000 ppm ([4]; 6 minutes): ~30% | viability at 15 min, 25000 ppm ([4]; after 15 minutes of exposure): 30% | MTS assay reading, Average ([5]; 200 ppm NO, 1 hour, F12 medium): 0.852 | MTS assay reading, Corrected Average ([5]; 200 ppm NO, 1 hour, F12 medium): 0.621 | Survival ([5]; 200 ppm NO, 1 hour, F12 medium): about 92% | MTS assay reading, Average [5, 9]: 0.06 | MTS assay reading, Corrected Average [5, 9]: 0 | MTS assay reading, Average [5, 10]: 1.276 | MTS assay reading, Corrected Average [5, 10]: 0.918 | Survival [5, 10]: about 90% | MTS assay reading, Average [5, 11]: 0.06 | MTS assay reading, Corrected Average [5, 11]: 0 | MTS assay reading, Average [5, 12]: 1.529 | MTS assay reading, Corrected Average [5, 12]: 1.059 | Survival [5, 12]: about 87% | MTS assay reading, Average [5, 13]: 0.061 | MTS assay reading, Corrected Average [5, 13]: 0 | MTS assay reading, Average [5, 14]: 0.110 | MTS assay reading, Corrected Average [5, 14]: 0.009 | plate appearance after incubation (FIG. 4) ([6]; 1 minute of exposure): still shows signs of the S. aureus | plate appearance after incubation (FIG. 5) ([6]; 3 minutes of exposure): no signs of the S. aureus | cells killed [7]: 75-95% | viability at 6 min, 25000 ppm [8]: < 10%
